In PubChem BioAssay AID330 (DTP/NCI, 2004):
Values joined by “and” are separate entries in the source; they are usually repeats but may differ in a detail not shown here. Equal entries are not always repeated. Inconclusive results and toxic doses are left out. The calls were made as follows: active = survival T/C of 150% or more; inactive = T/C below 125% in these data.

Test system: P388 leukemia ip, CD2F1 mice, survival T/C
Assay: NCI In Vivo Anticancer Drug Screen. Data for tumor model P388 Leukemia (intraperitoneal) in CD2F1 (CDF1) mice
Conditions: endpoint: median survival time, higher = longer survival
How it was run: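 Mice carrying the transplanted tumor received test compound or vehicle. Survival was recorded in each group, and the value is the treated-group measurement divided by that of the vehicle-treated control group.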

[1] = dose: 60.0 mg/kg/injection, schedule: Q01DX005 (ip), vehicle: saline with Tween-80
[2] = dose: 120.0 mg/kg/injection, schedule: Q01DX005 (ip), vehicle: saline with Tween-80
[3] = dose: 240.0 mg/kg/injection, schedule: Q01DX005 (ip), vehicle: saline with Tween-80
[4] = dose: 25.0 mg/kg/injection, schedule: Q01DX009 (ip), vehicle: Klucel (hydroxypropylcellulose) (HPC)
[5] = dose: 50.0 mg/kg/injection, schedule: Q01DX009 (ip), vehicle: Klucel (hydroxypropylcellulose) (HPC)
[6] = dose: 100.0 mg/kg/injection, schedule: Q01DX009 (ip), vehicle: Klucel (hydroxypropylcellulose) (HPC)
[7] = dose: 50.0 mg/kg/injection, schedule: Q01DX009 (ip), vehicle: saline with Tween-80
[8] = dose: 100.0 mg/kg/injection, schedule: Q01DX009 (ip), vehicle: saline with Tween-80
[9] = dose: 200.0 mg/kg/injection, schedule: Q01DX009 (ip), vehicle: saline with Tween-80

Measured: T/C

N=C(N)Cc1ccc(NC(=O)c2ccc(C(=O)Nc3ccc(CC(=N)N)cc3)cc2)cc1
inactive: dose: 9.37 mg/kg/injection, schedule: Q01DX001 (ip), vehicle: saline with Tween-80 120 % of control | dose: 18.75 mg/kg/injection, schedule: Q01DX001 (ip), vehicle: saline with Tween-80 120 % of control | dose: 37.5 mg/kg/injection, schedule: Q01DX001 (ip), vehicle: saline with Tween-80 115 % of control

CN(C)c1c2c(oc(=O)c1Cl)-c1ccccc1SCC2
inactive: [1] 101 % of control | [2] 100 % of control | [3] 91 % of control

CC(=O)NC(C=O)C(O)C(O)C(O)C(=O)O (stereo unspecified)
inactive: [4] 107 % of control | [5] 100 % of control | [6] 107 % of control

Cn1nc(C(=O)O)c(=O)[nH]c1=O
inactive: dose: 50.0 mg/kg/injection, schedule: Q01DX005 (ip), vehicle: saline 98 % of control | dose: 100.0 mg/kg/injection, schedule: Q01DX005 (ip), vehicle: saline 95 % of control | dose: 200.0 mg/kg/injection, schedule: Q01DX005 (ip), vehicle: saline 98 % of control

CC(=O)NC(Cc1cccc(F)c1)C(=O)O (stereo unspecified)
inactive: dose: 1.56 mg/kg/injection, schedule: Q01DX009 (ip), vehicle: saline 111 % of control | dose: 3.12 mg/kg/injection, schedule: Q01DX009 (ip), vehicle: saline 106 % of control | dose: 6.25 mg/kg/injection, schedule: Q01DX009 (ip), vehicle: saline 107 % of control and 88 % of control

[Se]=[Hf]=[Se]
inactive: [1] 97 % of control | [2] 97 % of control | [3] 94 % of control

CSc1nc2c(NN)ncnc2s1
inactive: dose: 80.5 mg/kg/injection, schedule: Q01DX001 (ip), vehicle: distilled water + alcohol 106 % of control | dose: 161.0 mg/kg/injection, schedule: Q01DX001 (ip), vehicle: distilled water + alcohol 102 % of control | dose: 322.0 mg/kg/injection, schedule: Q01DX001 (ip), vehicle: distilled water + alcohol 102 % of control

COC1/C=C\OC2(C)Oc3c(C)c(O)c4c(O)c(c5c(c4c3C2=O)OC[N+](C)=C5)NC(=O)/C(C)=C\C=C\C(C)C(O)C(C)C(O)C(C)C(OC(C)=O)C1C (stereo unspecified)
inactive: [4] 92 % of control | [5] 97 % of control | [6] 95 % of control | dose: 200.0 mg/kg/injection, schedule: Q01DX009 (ip), vehicle: Klucel (hydroxypropylcellulose) (HPC) 95 % of control

CCOC(=O)Nc1ccc(SCC2COC(Cn3ccnc3)(c3ccc(Cl)cc3Cl)O2)cc1 (stereo unspecified)
inactive: dose: 12.5 mg/kg/injection, schedule: Q01DX001 (ip), vehicle: saline 104 % of control | dose: 25.0 mg/kg/injection, schedule: Q01DX001 (ip), vehicle: saline 107 % of control | dose: 50.0 mg/kg/injection, schedule: Q01DX001 (ip), vehicle: saline 110 % of control

CCOC(=O)c1c(C)csc1NC(=O)CSCC(=O)OC
inactive: [1] 99 % of control | [2] 100 % of control | [3] 94 % of control

CC12COC3(C)CCC(C)(OC1)N23 (stereo unspecified)
inactive: [7] 100 % of control | [8] 97 % of control | [9] 103 % of control

CCOC1OCN(c2ccc(Cl)cc2)CC1(C)C (stereo unspecified)
inactive: dose: 25.0 mg/kg/injection, schedule: Q01DX009 (ip), vehicle: saline with Tween-80 111 % of control | [7] 106 % of control and 107 % of control and 93 % of control | [8] 100 % of control and 119 % of control | [9] 101 % of control and 116 % of control | dose: 400.0 mg/kg/injection, schedule: Q01DX009 (ip), vehicle: saline with Tween-80 100 % of control and 110 % of control

CCCCN=C(N)NN=C(c1ccc(C)cc1)c1ccc(C)cc1
inactive: dose: 25.0 mg/kg/injection, schedule: Q04DX002 (ip), vehicle: saline with Tween-80 102 % of control | dose: 50.0 mg/kg/injection, schedule: Q04DX002 (ip), vehicle: saline with Tween-80 99 % of control
